Laboratory results as given in ChEMBL document CHEMBL1137930, “Critical structural motif for the catalytic inhibition of human topoisomerase II by UK-1 and analogs” (Bioorg Med Chem Lett, 2004).

Key:
[1] = target: T1, DNA topoisomerase 2-alpha (Homo sapiens, UniProt P11388); assay: Inhibitory concentration against human DNA topoisomerase II, alpha mediated relaxation of pBR322
[2] = target: T1, DNA topoisomerase 2-alpha; assay: Inhibitory concentration against human DNA topoisomerase II, alpha mediated relaxation of pBR322; no measurable activity
[3] = target: T1, DNA topoisomerase 2-alpha; assay: Inhibitory activity of compound against human DNA topoisomerase II, alpha was evaluated by ability to interfere with the relaxation of supercoiled plasmid DNA
[4] = tested on: HL-60; assay: Cytotoxicity of compound against HL60 cell line; type: functional, cell-based; conditions: Homo sapiens
[5] = tested on: PC-3; assay: Cytotoxicity of compound against PC-3 cell line; type: functional, cell-based; conditions: Homo sapiens
[6] = tested on: P388; assay: Inhibitory activity of compound against P388 murine cell line; range is 0.3 uM-1.6 uM; type: functional, cell-based; conditions: Mus musculus

T1 sequence (P11388 whole entry): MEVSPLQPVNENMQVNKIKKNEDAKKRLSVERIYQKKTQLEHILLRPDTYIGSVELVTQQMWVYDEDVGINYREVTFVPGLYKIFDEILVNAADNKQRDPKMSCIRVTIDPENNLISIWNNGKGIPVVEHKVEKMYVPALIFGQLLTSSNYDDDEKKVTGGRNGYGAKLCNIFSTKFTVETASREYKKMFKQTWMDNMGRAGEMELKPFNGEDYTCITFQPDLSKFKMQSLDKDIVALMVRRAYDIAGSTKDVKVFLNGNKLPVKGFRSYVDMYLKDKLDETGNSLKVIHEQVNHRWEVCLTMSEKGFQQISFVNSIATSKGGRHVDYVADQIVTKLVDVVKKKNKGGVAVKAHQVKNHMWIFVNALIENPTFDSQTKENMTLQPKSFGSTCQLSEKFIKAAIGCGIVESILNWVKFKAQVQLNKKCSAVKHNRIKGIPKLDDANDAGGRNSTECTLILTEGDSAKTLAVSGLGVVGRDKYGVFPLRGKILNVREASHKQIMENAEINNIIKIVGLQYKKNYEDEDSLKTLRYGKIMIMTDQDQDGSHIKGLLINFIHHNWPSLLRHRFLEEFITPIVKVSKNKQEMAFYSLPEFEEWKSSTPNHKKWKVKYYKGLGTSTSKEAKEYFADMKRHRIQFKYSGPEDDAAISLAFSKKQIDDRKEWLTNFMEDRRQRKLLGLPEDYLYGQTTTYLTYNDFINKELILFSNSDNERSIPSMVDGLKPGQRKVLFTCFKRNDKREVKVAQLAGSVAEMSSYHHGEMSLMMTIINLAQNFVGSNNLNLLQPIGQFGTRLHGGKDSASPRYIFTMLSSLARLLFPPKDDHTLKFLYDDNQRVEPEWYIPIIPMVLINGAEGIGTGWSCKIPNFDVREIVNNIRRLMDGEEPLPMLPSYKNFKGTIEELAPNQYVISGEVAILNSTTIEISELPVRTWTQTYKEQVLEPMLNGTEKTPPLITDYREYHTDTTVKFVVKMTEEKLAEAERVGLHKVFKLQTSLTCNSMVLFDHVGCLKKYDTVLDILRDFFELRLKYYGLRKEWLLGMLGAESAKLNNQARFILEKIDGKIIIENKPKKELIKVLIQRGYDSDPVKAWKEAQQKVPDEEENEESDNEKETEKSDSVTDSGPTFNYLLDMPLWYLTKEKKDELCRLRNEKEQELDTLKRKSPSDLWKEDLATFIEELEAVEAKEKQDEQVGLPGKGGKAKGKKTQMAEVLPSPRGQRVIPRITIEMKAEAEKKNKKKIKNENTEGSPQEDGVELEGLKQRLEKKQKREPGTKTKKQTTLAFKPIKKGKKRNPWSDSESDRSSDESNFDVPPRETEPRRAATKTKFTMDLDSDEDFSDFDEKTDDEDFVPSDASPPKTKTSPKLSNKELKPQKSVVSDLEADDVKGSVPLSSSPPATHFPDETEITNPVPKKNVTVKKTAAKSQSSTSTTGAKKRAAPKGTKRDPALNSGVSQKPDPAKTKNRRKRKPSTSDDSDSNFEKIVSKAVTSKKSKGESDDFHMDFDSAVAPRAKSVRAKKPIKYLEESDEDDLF

Structure (SMILES): COC(=O)c1cccc2oc(-c3cccc4oc(-c5ccccc5)nc34)nc12
- IC50 [1]: 38 µM

Structure (SMILES): c1ccc(-c2nc3c(-c4nc5ccccc5o4)cccc3o2)cc1
- IC50 [2]: > 100 µM

Structure (SMILES): COC(=O)c1cccc2oc(-c3cccc4oc(-c5ccccc5O)nc34)nc12
- IC50 [3]: 32 µM
- IC50 [1]: 50 µM
- IC50 [4]: 0.32 µM
- IC50 [5]: 0.4 µM
- IC50 [6]: 0.3 µM

Structure (SMILES): Oc1ccccc1-c1nc2c(-c3nc4ccccc4o3)cccc2o1
- IC50 [3]: 20 µM
- IC50 [1]: 20 µM
